Key:
[1] = tested on: cell culture cells, transfected with Mnk2 (Mnk2a or Mnk2b) or Mnk1; details: addition to cell culture cells transfected with Mnk2 (Mnk2a or Mnk2b) or Mnk1; cited from earlier work
[2] = tested on: db/db mice; assay: 14-day oral treatment study in db/db mice (body weight, blood glucose, plasma and pancreas parameters); format: in vivo; details: oral gavage
Procedure: BKS.Cg-m+/+Lepr^db/J (Charles River Laboratories) male mice (commonly referred to as db/db mice) are deficient in the […] due a spontaneous point mutation. They are maintained on the C57BL6/J strain.
Mice are housed four by cage at a temperature of 22-24° C. and a day/night cycle of […] (05:00-19:00-05:00), and obtain standard chow and tap water ad libitum. Mice are allowed to adapt to housing and environment for 14 days prior to substance administration.
Compound suspensions in 0.3% Methylcellulose in saline are prepared freshly just prior to administration.
Substances will be administered by oral gavage in the morning at 07:00, one hour before determining fed blood glucose levels and body weight. In the evening, substance is administered between 17:00 and 18:00. Animals are visually monitored for 1 hour after the administrations.
Dosing is chosen based on the results of pharmacokinetic (PK) and dose tolerability studies. […]
Animals are being supplied one week in advance to allow for adaptation to housing and environment. During that time, body weight and fed blood glucose are measured daily. […]
Bodyweight and bloodglucose were measured three times a week. At the end of the study pancreatic insulin content and plasma parameters were determined.

Structure (SMILES): Nc1ncnc2n[nH]c(Nc3ccc(F)cc3)c12 [CGP57380]
- phosphorylated eIF4E [1]: strong reduction

Structure (SMILES): NC(=O)c1ccc(Nc2ncnc3ccsc23)c(OC2CCOC2)c1 (stereo not drawn) [Compound 15, 3-(Tetrahydrofuran-3-yloxy)-4-(thieno[3,2-d]pyrimidin-4-ylamino)-benzamide]
- random fed blood glucose ([2]; during the 14 day study, FIG. 2): progressive improvement

Structure (SMILES): CN(CCOc1ccc(CC2SC(=O)NC2=O)cc1)c1ccccn1 (stereo not drawn) [Rosiglitazone]
- body weight compared to vehicle ([2]; d1 to d14, FIG. 1): significant increased in body weight
